Measurements reported in the NIST ThermoML archive (doi:10.1021/je060271a).

Conditions: Liquid, Vibrating tube method

CCCC(=O)OCC(COC(=O)CCC)(COC(=O)CCC)COC(=O)CCC [pentaerythritol tetrabutyrate]
Conditions | mass density [kg/m3]
303.16 K, 34848 kPa | 1063.1
303.17 K, 281.6 kPa | 1042.3
303.17 K, 295.5 kPa | 1042.4
303.17 K, 308.6 kPa | 1042.3
303.17 K, 338.6 kPa | 1042.4
303.17 K, 356.5 kPa | 1042.4
303.17 K, 372.3 kPa | 1042.3
303.17 K, 389.7 kPa | 1042.4
303.17 K, 409.5 kPa | 1042.4
303.17 K, 424.5 kPa | 1042.4
303.17 K, 439.6 kPa | 1042.5
303.17 K, 457.1 kPa | 1042.5
303.17 K, 488.2 kPa | 1042.3
303.17 K, 509.3 kPa | 1042.5
303.17 K, 526.8 kPa | 1042.6
303.17 K, 1268.4 kPa | 1043
303.17 K, 1312 kPa | 1043
303.17 K, 1333.8 kPa | 1043
303.17 K, 2851.4 kPa | 1044.1
303.17 K, 2920.2 kPa | 1044.1
303.17 K, 4808.4 kPa | 1045.3
303.17 K, 4819 kPa | 1045.4
303.17 K, 4825.7 kPa | 1045.3
303.17 K, 4829.2 kPa | 1045.3
303.17 K, 4830.8 kPa | 1045.2
303.17 K, 4832.3 kPa | 1045.3
303.17 K, 4834.4 kPa | 1045.4
303.17 K, 4836 kPa | 1045.4
303.17 K, 4837.7 kPa | 1045.4
303.17 K, 4839.2 kPa | 1045.4
303.17 K, 4840.6 kPa | 1045.4
303.17 K, 4842.7 kPa | 1045.3
303.17 K, 6518.3 kPa | 1046.5
303.17 K, 6547.8 kPa | 1046.4
303.17 K, 6572.5 kPa | 1046.5
303.17 K, 7027.7 kPa | 1046.8
303.17 K, 7057 kPa | 1046.7
303.17 K, 7087.6 kPa | 1046.8
303.17 K, 7117.6 kPa | 1046.7
303.17 K, 7147.4 kPa | 1046.8
303.17 K, 7177.7 kPa | 1046.9
303.17 K, 7213.5 kPa | 1046.9
303.17 K, 7243.4 kPa | 1046.9
303.17 K, 8394.2 kPa | 1047.6
303.17 K, 8419.6 kPa | 1047.7
303.17 K, 8440.8 kPa | 1047.7
303.17 K, 8462 kPa | 1047.7
303.17 K, 8485.6 kPa | 1047.7
303.17 K, 9218.9 kPa | 1048
303.17 K, 34670 kPa | 1063
303.17 K, 34730 kPa | 1063.1
303.17 K, 34780 kPa | 1063.1
303.17 K, 34833 kPa | 1063.2
323.14 K, 3021.5 kPa | 1026.7
323.14 K, 3045.8 kPa | 1026.8
323.14 K, 3074.9 kPa | 1026.9
323.14 K, 3099.4 kPa | 1026.9
323.14 K, 3124.1 kPa | 1027
323.14 K, 3153.6 kPa | 1026.9
323.14 K, 3179.3 kPa | 1026.9
323.14 K, 3204.7 kPa | 1027
323.14 K, 3230.2 kPa | 1027
323.14 K, 3262.8 kPa | 1027.1
323.14 K, 3289.7 kPa | 1027
323.14 K, 3316.7 kPa | 1027.2
323.14 K, 3376.7 kPa | 1027.2
323.14 K, 3404.8 kPa | 1027.3
323.14 K, 3432.9 kPa | 1027.2
323.14 K, 3526.4 kPa | 1027.4
323.14 K, 3592.6 kPa | 1027.3
323.14 K, 3622.8 kPa | 1027.3
323.14 K, 3654 kPa | 1027.4
323.14 K, 3691.9 kPa | 1027.4
323.14 K, 3723.3 kPa | 1027.5
323.14 K, 3755.5 kPa | 1027.4
323.14 K, 3794.3 kPa | 1027.5
323.14 K, 3827.2 kPa | 1027.5
323.14 K, 3860.3 kPa | 1027.6
323.14 K, 3900.3 kPa | 1027.7
323.14 K, 3935 kPa | 1027.6
323.14 K, 3969.1 kPa | 1027.6
323.14 K, 4004.6 kPa | 1027.7
323.14 K, 4047.6 kPa | 1027.8
323.14 K, 4083.9 kPa | 1027.7
323.14 K, 4121.4 kPa | 1027.7
323.14 K, 4159.5 kPa | 1027.8
323.14 K, 4204 kPa | 1027.8
323.14 K, 4241.5 kPa | 1027.9
323.14 K, 4280.5 kPa | 1028
323.14 K, 4319.3 kPa | 1027.9
323.14 K, 4366.4 kPa | 1028
323.14 K, 4406.1 kPa | 1028
323.14 K, 4447.6 kPa | 1028.1
323.14 K, 4495.9 kPa | 1028
323.14 K, 4536.6 kPa | 1028.2
323.14 K, 4587.3 kPa | 1028.3
323.14 K, 4629.9 kPa | 1028.2
323.14 K, 4673.5 kPa | 1028.3
323.14 K, 4708.8 kPa | 1028.3
323.14 K, 4783.8 kPa | 1028.3
323.14 K, 4863.6 kPa | 1028.4
323.14 K, 4981.8 kPa | 1028.4
323.14 K, 5097.9 kPa | 1028.7
323.14 K, 5295.3 kPa | 1028.8
323.14 K, 5295.4 kPa | 1028.7
323.14 K, 5295.6 kPa | 1028.8
323.14 K, 5487.4 kPa | 1028.9
323.14 K, 5504.7 kPa | 1029
323.14 K, 5543.7 kPa | 1028.9
323.14 K, 12307 kPa | 1033.8
323.14 K, 12337 kPa | 1033.7
323.14 K, 14077 kPa | 1034.9
323.14 K, 14107 kPa | 1034.9
323.14 K, 14132 kPa | 1034.8
323.14 K, 14159 kPa | 1034.9
323.14 K, 14184 kPa | 1035
323.14 K, 14777 kPa | 1035.3
323.14 K, 16272 kPa | 1036.3
323.14 K, 16347 kPa | 1036.3
323.14 K, 16415 kPa | 1036.4
323.14 K, 16456 kPa | 1036.4
323.14 K, 16491 kPa | 1036.5
323.14 K, 16525 kPa | 1036.4
323.14 K, 16567 kPa | 1036.5
323.14 K, 16603 kPa | 1036.5
323.14 K, 16638 kPa | 1036.5
323.14 K, 16681 kPa | 1036.6
323.14 K, 16716 kPa | 1036.5
323.14 K, 16912 kPa | 1036.7
323.14 K, 16948 kPa | 1036.8
323.14 K, 16993 kPa | 1036.8
323.14 K, 17030 kPa | 1036.8
323.14 K, 17069 kPa | 1036.8
323.14 K, 17108 kPa | 1036.7
323.14 K, 17153 kPa | 1036.9
323.14 K, 17191 kPa | 1037
323.14 K, 17229 kPa | 1036.9
323.14 K, 17267 kPa | 1036.9
323.14 K, 17315 kPa | 1036.9
323.14 K, 17354 kPa | 1036.9
323.14 K, 17394 kPa | 1037
323.14 K, 17441 kPa | 1037.1
323.14 K, 17476 kPa | 1037
323.14 K, 17519 kPa | 1037.1
323.14 K, 17554 kPa | 1037.2
323.14 K, 17593 kPa | 1037
323.14 K, 17628 kPa | 1037.1
